Measurements: US12077503B2, “Substituted cyclic amides and their use as herbicides” (FMC CORPORATION, priority 2015, dated 2024)

How the values were obtained:
Assay type in all cases: in vivo
Kochia (Kochia scoparia) [1] = experiment: Test A postemergence
Excerpt: (§1) Seeds of plant species selected from barnyardgrass (Echinochloa crus-galli), Kochia (Kochia scoparia), ragweed (common ragweed, Ambrosia elatior), ryegrass, Italian (Italian ryegrass, Lolium multiflorum), crabgrass, large (Digitaria sanguinalis), giant foxtail (Setaria faberii), green foxtail (Setaria viridis), morningglory (Ipomoea spp.), pigweed (Amaranthus retroflexus), velvetleaf (Abutilon theophrasti), wheat (Triticum aestivum), and corn (Zea mays) were planted into a blend of loam soil and sand and treated preemergence with a directed soil spray using test chemicals formulated in anon-phytotoxic solvent mixture which included a surfactant.
(§2) At the same time, plants selected from these crop and weed species and also blackgrass (Alopecurus myosuroides), and Galium (catchweed bedstraw, Galium aparine) were planted in pots containing the same blend of loam soil and sand and treated with postemergence applications of test chemicals formulated in the same manner. Plants ranged in height from 2 to 10 cm and were in the one- to two-leaf stage for the postemergence treatment. Treated plants and untreated controls were maintained in a greenhouse for approximately 10 d, after which time all treated plants were compared to untreated controls and visually evaluated for injury. Plant response ratings, summarized in Table A, are based on a 0 to 100 scale where 0 is no effect and 100 is complete control. A dash (-) response means no test result.

[2] = test system: wheat (Triticum aestivum); experiment: Test A postemergence
Excerpt: as §1, §2

[3] = test system: giant foxtail (Setaria faberii); experiment: Test A postemergence
Excerpt: as §1, §2

[4] = test system: ryegrass, Italian (Italian ryegrass, Lolium multiflorum); experiment: Test A postemergence
Excerpt: as §1, §2

[5] = test system: pigweed (Amaranthus retroflexus); experiment: Test A postemergence
Excerpt: as §1, §2

corn (Zea mays) = experiment: Test A postemergence
Excerpt: as §1, §2

[6] = test system: Galium (catchweed bedstraw, Galium aparine); experiment: Test A postemergence
Excerpt: as §1, §2

[7] = test system: barnyardgrass (Echinochloa crus-galli); experiment: Test A postemergence
Excerpt: as §1, §2

[8] = test system: ragweed (common ragweed, Ambrosia elatior); experiment: Test A postemergence
Excerpt: as §1, §2

[9] = test system: blackgrass (Alopecurus myosuroides); experiment: Test A postemergence
Excerpt: as §1, §2

[10] = test system: ducksalad (Heteranthera limosa); experiment: Test B flooded paddy test; settings: Flood, 250 g ai/ha; 0 to 100 scale where 0 is no effect and 100 is complete control; 13 to 15 d
Protocol: (§3) Plant species in the flooded paddy test selected from rice (Oryra sativa), sedge, umbrella (small-flower umbrella sedge, Cyperus difformis), ducksalad (Heteranthera limosa), and barnyardgrass (Echinochloa crus-galli) were grown to the 2-leaf stage for testing. At time of treatment, test pots were flooded to 3 cm above the soil surface, treated by application of test compounds directly to the paddy water, and then maintained at that water depth for the duration of the test. Treated plants and controls were maintained in a greenhouse for 13 to 15 d, after which time all species were compared to controls and visually evaluated. Plant response ratings, summarized in Table B, are based on a scale of 0 to 100 where 0 is no effect and 100 is complete control. A dash (-) response means no test result.

rice (Oryra sativa) = experiment: Test B flooded paddy test; settings: Flood, 250 g ai/ha; 0 to 100 scale where 0 is no effect and 100 is complete control; 13 to 15 d
Protocol: as §3

[11] = test system: sedge, umbrella (small-flower umbrella sedge, Cyperus difformis); experiment: Test B flooded paddy test; settings: Flood, 250 g ai/ha; 0 to 100 scale where 0 is no effect and 100 is complete control; 13 to 15 d
Protocol: as §3

[12] = test system: barnyardgrass (Echinochloa crus-galli); experiment: Test B flooded paddy test; settings: Flood, 250 g ai/ha; 0 to 100 scale where 0 is no effect and 100 is complete control; 13 to 15 d
Protocol: as §3

Kochia (Kochia scoparia) [13] = experiment: Test A preemergence
Excerpt: as §1, §2

[14] = test system: giant foxtail (Setaria faberii); experiment: Test A preemergence
Excerpt: as §1, §2

[15] = test system: ryegrass, Italian (Italian ryegrass, Lolium multiflorum); experiment: Test A preemergence
Excerpt: as §1, §2

[16] = test system: pigweed (Amaranthus retroflexus); experiment: Test A preemergence
Excerpt: as §1, §2

[17] = test system: barnyardgrass (Echinochloa crus-galli); experiment: Test A preemergence
Excerpt: as §1, §2

[18] = test system: ragweed (common ragweed, Ambrosia elatior); experiment: Test A preemergence
Excerpt: as §1, §2

[19] = 125 g ai/ha, postemergence, visual rating after approx. 10 d, 0 to 100 scale (0 no effect, 100 complete control)
[20] = 500 g ai/ha, postemergence, visual injury, 0 to 100 scale (0 no effect, 100 complete control), approx. 10 d
[21] = Postemergence, 500 g ai/ha, 0 to 100 scale where 0 is no effect and 100 is complete control
[22] = 125 g ai/ha, Preemergence, visual injury after approximately 10 d, 0 to 100 scale where 0 is no effect and 100 is complete control
[23] = 500 g ai/ha, preemergence, 0 to 100 scale, 0 = no effect, 100 = complete control
[24] = 125 g ai/ha, postemergence, visual injury rating on 0 to 100 scale (0 no effect, 100 complete control), approx. 10 d
[25] = 500 g ai/ha, postemergence, 0 to 100 scale, 0 no effect, 100 complete control
[26] = 125 g ai/ha, preemergence, 0 to 100 scale (0 no effect, 100 complete control)
[27] = Preemergence, 500 g ai/ha, visual injury approx. 10 d

CN1CC(c2cccc(F)c2)C(C(=O)Nc2cccc(F)c2F)C1=O (stereo not drawn) [Compound 632]
40: Plant response rating, Pigweed [5, 20]
50: Plant response rating, Ryegrass, Italian [4, 20] | Plant response rating, Galium [6, 19] | Plant response rating, Galium [6, 20] | Plant response rating, Blackgrass [9, 19] | Plant response rating, Sedge, Umbrella [11] | Plant response rating, Kochia (Kochia (Kochia scoparia) [13]; [22])
100: Plant response rating, Ducksalad [10]
0: Plant response rating, Pigweed [5, 19] | Plant response rating, Pigweed [16, 22]
60: Plant response rating, Kochia (Kochia (Kochia scoparia) [1]; [19]) | Plant response rating, Kochia (Kochia (Kochia scoparia) [1]; [20]) | Plant response rating, Wheat [2, 20] | Plant response rating, Blackgrass [9, 21] | Plant response rating, Ryegrass, Italian [15, 22] | Plant response rating, Ragweed [18, 22]
20: Plant response rating, Corn (corn (Zea mays); [19]) | Plant response rating, Ragweed [8, 19]
30: Plant response rating, Wheat [2, 19] | Plant response rating, Ryegrass, Italian [4, 19] | Plant response rating, Ragweed [8, 20] | Plant response rating, Rice (rice (Oryra sativa))
90: Plant response rating, Foxtail, Giant [3, 19] | Plant response rating, Foxtail, Giant [3, 20] | Plant response rating, Barnyardgrass [7, 19] | Plant response rating, Barnyardgrass [7, 21] | Plant response rating, Foxtail, Giant [14, 22] | Plant response rating, Foxtail, Giant [14, 23] | Plant response rating, Barnyardgrass [17, 22] | Plant response rating, Barnyardgrass [17, 23]
80: Plant response rating, Corn (corn (Zea mays); [21]) | Plant response rating, Barnyardgrass [12]
70: Plant response rating, Kochia (Kochia (Kochia scoparia) [13]; [23]) | Plant response rating, Ryegrass, Italian [15, 23] | Plant response rating, Pigweed [16, 23] | Plant response rating, Ragweed [18, 23]

CN1CC(c2ccc(C(F)(F)F)cc2F)C(C(=O)Nc2ccccc2F)C1=O (stereo not drawn) [Compound 476]
90: Barnyardgrass plant response rating [7, 24] | Plant response rating, Barnyardgrass [7, 25] | Plant response rating, Foxtail, Giant [14, 26] | Plant response rating, Barnyardgrass [17, 26] | Barnyardgrass plant response rating (0 to 100 scale, 0 is no effect, 100 is complete control) [17, 27]
40: Plant response rating, Ryegrass, Italian [4, 21] | Plant response rating, Pigweed [5, 21] | Ryegrass, Italian plant response rating (0 to 100 scale, 0 is no effect, 100 is complete control) [15, 27]
20: Pigweed plant response rating [5, 24] | Blackgrass plant response rating [9, 24]
30: Kochia plant response rating (Kochia (Kochia scoparia) [1]; [24]) | Plant response rating, Wheat [2, 21] | Ryegrass, Italian plant response rating [4, 24] | Plant response rating, Corn (corn (Zea mays); [25]) | Galium plant response rating [6, 24] | Plant response rating, Pigweed [16, 22]
60: Plant response rating, Kochia (Kochia (Kochia scoparia) [1]; [21]) | Plant response rating, Galium [6, 21] | Ragweed plant response rating (0 to 100 scale, 0 is no effect, 100 is complete control) [18, 27]
80: Foxtail, Giant plant response rating [3, 24] | Plant response rating, Foxtail, Giant [3, 21] | Plant response rating, Ducksalad [10] | Pigweed plant response rating (0 to 100 scale, 0 is no effect, 100 is complete control) [16, 27]
70: Kochia plant response rating (0 to 100 scale, 0 is no effect, 100 is complete control) (Kochia (Kochia scoparia) [13]; [27])
100: Foxtail, Giant plant response rating (0 to 100 scale, 0 is no effect, 100 is complete control) [14, 27]
50: Plant response rating, Blackgrass [9, 25] | Plant response rating, Kochia (Kochia (Kochia scoparia) [13]; [26])
0: Wheat plant response rating [2, 24] | Corn plant response rating (corn (Zea mays); [24]) | Ragweed plant response rating [8, 24] | Plant response rating, Ragweed [8, 21] | Plant response rating, Rice (rice (Oryra sativa)) | Plant response rating, Sedge, Umbrella [11] | Plant response rating, Barnyardgrass [12] | Plant response rating, Ryegrass, Italian [15, 22] | Plant response rating, Ragweed [18, 22]
